Test results reported in patent US6670363B1, “Azole compounds as therapeutic agents for fungal infections” (Ranbaxy Laboratories Limited, priority 2000, dated 2003).
In brackets after ≈: the same amount, converted by molar mass.

Key:
A. fumigatus s 1008 = assay: In vitro MIC, NCCLS M38P broth method (RPMI 1640/MOPS pH7), Aspergillus fumigatus; format: cell-based; details: for MIC, A. fumigatus 1008: A. fumigatus strain 1008
Cryptococcus neoformans = assay: In vitro MIC, NCCLS M27A, Cryptococcus neoformans; format: cell-based; parameters: MIC, C. neoformans I: unit not given beside the values; MIC, C. neoformans M 106: unit not given here; details: for MIC, C. neoformans I: C. neoformans strain I; for MIC, C. neoformans M 106: C. neoformans strain M 106
Candida = assay: In vitro MIC, NCCLS M27A, Candida species; format: cell-based; parameters: MIC, Candida albicans 1.549 / MIC, Candida albicans Y-01-19 / MIC, C. krusei 766-1 / MIC, C. krusei Q. C / MIC, Candida tropicalis ATCC / MIC, C. glabrata 90030: unit not given beside the values; MIC, Candida albicans A 26 / MIC, C. parapsilosis Q. C.: unit not given here; details: for MIC, C. glabrata 90030: C. glabrata strain 90030; for MIC, C. krusei 766-1: C. krusei strain 766-1; for MIC, C. krusei Q. C: C. krusei strain Q. C; for MIC, C. parapsilosis Q. C.: C. parapsilosis strain Q. C.; for MIC, Candida albicans 1.549: Candida albicans strain 1.549; for MIC, Candida albicans A 26: Candida albicans strain A 26; for MIC, Candida albicans Y-01-19: Candida albicans strain Y-01-19
Histoplasma capsulatum = format: cell-based

| SMILES | MIC, A. fumigatus 1008 (A. fumigatus s 1008) | MIC, C. neoformans I (Cryptococcus neoformans) | MIC, C. neoformans M 106 (Cryptococcus neoformans) | melting point [°C] | MIC, C. glabrata 90030 (Candida) | MIC, C. krusei 766-1 (Candida) | MIC, C. krusei Q. C (Candida) | MIC, C. parapsilosis Q. C. (Candida) | MIC, Candida albicans 1.549 (Candida) | MIC, Candida albicans A 26 (Candida) | MIC, Candida albicans Y-01-19 (Candida) | MIC, Candida tropicalis ATCC (Candida) | MIC, H. capsulatum (Histoplasma capsulatum) [mg/L] | MIC (υg/ml) (A. fumigatus s 1008) (A. fumigatus s 1008) [mg/L] |
| --- | --- | --- | --- | --- | --- | --- | --- | --- | --- | --- | --- | --- | --- | --- |
| O=c1n(-c2ccc(N3CCN(c4ccc(F)c(F)c4)CC3)cc2)cnn1CC(O)(Cn1cncn1)c1ccc(F)cc1F (stereo not shown) [Compound 55, 2-[2-(2,4-Difluorophenyl)-2-hydroxy-3-(1H-1,2,4-triazol-1-yl)propyl]-4-{4-[4-(3,4-difluorophenyl)-1-piperazinyl]phenyl}-3-(2H,4H)-1,2,4-triazolone] | >16 | <0.03 | 0.02 | 117 to 118 | 0.25 | 1.00 | 0.12 | <0.03 | 0.03 | <0.03 | 0.03 | <0.03 | 0.004 (≈ 0.00673 µM) |  |
| Cc1ccc(N2CCN(c3ccc(-n4cnn(CC(O)(Cn5cncn5)c5ccc(F)cc5F)c4=O)cc3)CC2)cc1 (stereo not shown) [Compound 39, 2-[2-(2,4-Difluorophenyl)-2-hydroxy-3-(1H-1,2,4-triazol-1-yl)propyl]-4-{4-[4-(4-methylphenyl)-1-piperazinyl]phenyl}-3-(2H,4H)-1,2,4-triazolone] | 6.25 | <0.02 | 0.05 | 146 to 148 | 0.10 | 0.80 | 0.10 | <0.02 | 0.10 | <0.02 | 0.02 | 6.25 | 0.05 (≈ 0.0873 µM) |  |
| O=c1n(-c2ccc(N3CCN(c4cccc(C(F)(F)F)c4)CC3)cc2)cnn1CC(O)(Cn1cncn1)c1ccc(F)cc1F (stereo not shown) [Compound 51, 2-[2-(2,4-Difluorophenyl)-2-hydroxy-3-(1H-1,2,4-triazol-1-yl)propyl]-4-{4-[4-(3-trifluoromethylphenyl)-1-piperazinyl]phenyl}-3-(2H,4H)-1,2,4-triazolone] | >16 | <0.03 | <0.03 | 166 to 168 | 1.00 | 1.00 | 0.25 | 0.06 | 0.25 | <0.03 | 0.25 | <0.03 | < 0.03 |  |
| Cc1ccc(N2CCN(c3ccc(-n4cnn(CC(O)(Cn5cncn5)c5ccc(F)cc5F)c4=O)cc3)CC2)cc1C (stereo not shown) [Compound 56, 2-[2-(2,4-Difluorophenyl)-2-hydroxy-3-(1H-1,2,4-triazol-1-yl)propyl]-4-{4-[4-(3,4-dimethylphenyl)-1-piperazinyl]phenyl}-3-(2H,4H)-1,2,4-triazolone] | >16 | <0.03 | 0.03 | 136 to 137 | 0.25 | 1.00 | 0.25 | <0.03 | 0.06 | <0.03 | 0.03 | <0.03 | 0.004 (≈ 0.00682 µM) |  |
| COC(=O)Cc1ccc(N2CCN(c3ccc(-n4cnn(CC(O)(Cn5cncn5)c5ccc(F)cc5F)c4=O)cc3)CC2)cc1 (stereo not shown) [Compound 93, 2-[2-(2,4-Difluorophenyl)-2-hydroxy-3-(1H-1,2,4-triazol-1-yl)propyl]-4-{4-[4-(4-(2-methoxy-2-oxoethyl)phenyl)-1-piperazinyl]phenyl}-3-(2H,4H)-1,2,4-triazolone] |  |  |  | 66 to 69 |  |  |  |  |  |  |  |  |  | >12.5 |
| Cc1ccc(N2CCN(c3ccc(-n4cnn(CC(O)(Cn5cncn5)c5ccc(F)cc5F)c4=O)cc3)CC2)c(C)c1 (stereo not shown) [Compound 54, 2-[2-(2,4-Difluorophenyl)-2-hydroxy-3-(1H-1,2,4-triazol-1-yl)propyl]-4-{4-[4-(2,4-dimethylphenyl)-1-piperazinyl]phenyl}-3-(2H,4H)-1,2,4-triazolone] | 2.00 | <0.03 | <0.03 | 76 to 77 | 1.00 | 0.50 | 0.12 | <0.03 | 8.00 | <0.03 | 0.12 | <0.03 | 0.06 (≈ 0.102 µM) |  |
| O=c1n(-c2ccc(N3CCN(c4ccc(CCO)cc4)CC3)cc2)cnn1CC(O)(Cn1cncn1)c1ccc(F)cc1F (stereo not shown) [Compound 95, 2-[2-(2,4-Difluorophenyl)-2-hydroxy-3-(1H-1,2,4-triazol-1-yl)propyl]-4-{4-[4-(4-(2-hydroxyethyl)phenyl)-1-piperazinyl]phenyl}-3-(2H,4H)-1,2,4-triazolone] |  |  |  | 114 to 115 |  |  |  |  |  |  |  |  |  | >12.5 |
| CCc1ccccc1N1CCN(c2ccc(-n3cnn(CC(O)(Cn4cncn4)c4ccc(F)cc4F)c3=O)cc2)CC1 (stereo not shown) [Compound 60, 2-[2-(2,4-Difluorophenyl)-2-hydroxy-3-(1H-1,2,4-triazol-1-yl)propyl]-4-{4-[4-(2-ethylphenyl)-1-piperazinyl]phenyl}-3-(2H,4H)-1,2,4-triazolone] | >16 | <0.03 | <0.03 | 148 to 150 | 0.50 | 1.00 | 0.25 | <0.03 | >16 | <0.03 | 0.25 | <0.03 | < 0.03 |  |
| Nc1ccc(N2CCN(c3ccc(-n4cnn(CC(O)(Cn5cncn5)c5ccc(F)cc5F)c4=O)cc3)CC2)c(N)c1 (stereo not shown) [Compound 38, 2-[2-(2,4-Difluorophenyl)-2-hydroxy-3-(1H-1,2,4-triazol-1-yl)propyl]-4-{4-[4-(2,4-diaminophenyl)-1-piperazinyl]phenyl}-3-(2H,4H)-1,2,4-triazolone] | >16 | >16 | >16 | 215 to 222 | >16 | >16 | >16 | >16 | >16 | >16 | >16 | >16 | > 16 |  |
| O=C(O)CCc1ccc(N2CCN(c3ccc(-n4cnn(CC(O)(Cn5cncn5)c5ccc(F)cc5F)c4=O)cc3)CC2)cc1 (stereo not shown) [Compound 94, 2-[2-(2,4-Difluorophenyl)-2-hydroxy-3-(1H-1,2,4-triazol-1-yl)propyl]-4-{4-[4-(4-(carboxyethyl)-phenyl)-1-piperazinyl]phenyl}-3-(2H,4H)-1,2,4-triazolone] |  |  |  | 235 to 239 |  |  |  |  |  |  |  |  |  | >12.5 |
| C[C@@H](n1ncn(-c2ccc(N3CCN(c4ccc(F)cc4)CC3)cc2)c1=O)[C@](O)(Cn1cncn1)c1ccc(F)cc1F [Compound 11, 2-{[1R2R/1S2S]-2-(2,4-Difluorophenyl)-2-hydroxy-1-methyl-3-(1H-1,2,4-triazol-1-yl)propyl}-4-{4-[4-(4-fluorophenyl)-1-piperazinyl]phenyl}-3-(2H,4H)-1,2,4-triazolone] | 0.25 | <0.03 | <0.03 |  | 0.25 | 0.25 | 0.12 | <0.03 | 0.06 | <0.03 | 0.12 | <0.03 | < 0.03 |  |
| C[C@@H](n1ncn(-c2ccc(N3CCN(c4cccc(C(F)(F)F)c4)CC3)cc2)c1=O)[C@@](O)(Cn1cncn1)c1ccc(F)cc1F [Compound 10, 2-{[1R2S/1S2R]-2-(2,4-Difluorophenyl)-2-hydroxy-1-methyl-3-(1H-1,2,4-triazol-1-yl)propyl}-4-{4-[4-(3-trifluoromethylphenyl)-1-piperazinyl]phenyl}-3-(2H,4H)-1,2,4-triazolone] | >16 | 0.06 | <0.03 |  | 0.50 | >16 | 1.00 | <0.03 | 0.50 | <0.03 | 1.00 | <0.03 | 0.06 (≈ 0.0937 µM) |  |
